Literature values, collected in paper PMC9549396 (Proceedings of the National Academy of Sciences of the …, 2022).

Molecular target: PI3KC2β (Homo sapiens, UniProt O00750)
Assay: lipid kinase activity inhibition
Type: biochemical

PI3KC2β, sequence (O00750 whole entry): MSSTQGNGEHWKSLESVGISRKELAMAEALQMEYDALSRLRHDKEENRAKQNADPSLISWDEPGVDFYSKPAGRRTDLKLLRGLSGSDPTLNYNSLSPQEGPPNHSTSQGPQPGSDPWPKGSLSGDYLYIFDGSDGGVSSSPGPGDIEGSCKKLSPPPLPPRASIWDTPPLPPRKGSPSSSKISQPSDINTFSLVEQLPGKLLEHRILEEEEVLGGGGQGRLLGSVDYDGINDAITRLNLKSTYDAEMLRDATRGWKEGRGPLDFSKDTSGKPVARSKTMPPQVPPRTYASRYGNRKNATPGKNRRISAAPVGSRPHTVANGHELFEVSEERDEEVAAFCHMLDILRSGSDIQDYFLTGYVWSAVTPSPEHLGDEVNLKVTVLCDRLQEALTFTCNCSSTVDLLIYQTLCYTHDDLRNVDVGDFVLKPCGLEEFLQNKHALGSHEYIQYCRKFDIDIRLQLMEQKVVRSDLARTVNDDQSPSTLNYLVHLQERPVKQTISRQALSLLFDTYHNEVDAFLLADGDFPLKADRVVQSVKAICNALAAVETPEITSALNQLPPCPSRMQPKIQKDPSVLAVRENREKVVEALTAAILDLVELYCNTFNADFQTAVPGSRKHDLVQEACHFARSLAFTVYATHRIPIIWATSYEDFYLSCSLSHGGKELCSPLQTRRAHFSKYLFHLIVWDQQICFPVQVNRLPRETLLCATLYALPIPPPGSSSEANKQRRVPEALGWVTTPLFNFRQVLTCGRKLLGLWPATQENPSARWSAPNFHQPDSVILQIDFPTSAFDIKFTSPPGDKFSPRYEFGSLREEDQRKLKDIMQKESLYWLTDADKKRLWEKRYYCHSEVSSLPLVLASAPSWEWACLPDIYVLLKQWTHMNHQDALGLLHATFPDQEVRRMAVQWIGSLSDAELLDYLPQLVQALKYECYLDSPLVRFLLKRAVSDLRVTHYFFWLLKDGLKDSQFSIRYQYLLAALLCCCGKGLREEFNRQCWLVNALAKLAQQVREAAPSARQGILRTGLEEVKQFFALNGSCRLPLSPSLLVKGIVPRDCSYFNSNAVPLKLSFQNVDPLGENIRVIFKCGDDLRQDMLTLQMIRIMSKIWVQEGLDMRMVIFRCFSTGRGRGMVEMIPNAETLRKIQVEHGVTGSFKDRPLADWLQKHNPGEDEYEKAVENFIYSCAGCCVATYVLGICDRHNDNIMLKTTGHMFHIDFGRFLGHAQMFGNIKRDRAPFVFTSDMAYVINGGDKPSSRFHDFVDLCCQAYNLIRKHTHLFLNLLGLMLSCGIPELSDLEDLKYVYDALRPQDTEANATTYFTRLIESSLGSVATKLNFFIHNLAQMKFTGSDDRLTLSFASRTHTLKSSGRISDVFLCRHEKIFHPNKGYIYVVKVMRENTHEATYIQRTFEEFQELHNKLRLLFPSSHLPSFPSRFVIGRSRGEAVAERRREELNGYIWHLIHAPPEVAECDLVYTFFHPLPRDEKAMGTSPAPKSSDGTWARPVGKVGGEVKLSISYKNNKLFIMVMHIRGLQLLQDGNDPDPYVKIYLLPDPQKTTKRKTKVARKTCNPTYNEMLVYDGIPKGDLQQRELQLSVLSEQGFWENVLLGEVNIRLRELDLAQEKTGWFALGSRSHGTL

PITCOIN2
IC50: 1500 nM
